In patent publication US10369185B2, “Methods and compositions for enhancement of ability to concentrate” (KYOWA HAKKO BIO CO., LTD., priority 2014, dated 2019):
Peptide text beside a SMILES is read from it.

Tests used:
male runners [1] = assay: Dynavision D2 MODE B reaction test with cognitive load (hits and time per hit in 60 s); type: in vivo, human; design: Mode B Avg Δ, Mean Difference: unit not given here; conditions: for Mode B Avg Δ (time per hit), group mean / Mode B Hits Δ, group mean: Post-Pre
Experimental: The testing protocol is depicted in FIG. 1. Data collection occurred on four separate occasions. Each session required participants to perform a 60-min run at 75% of their previously measured VO2max. Following this run, all participants performed a run at 90% of their VO2max until volitional exhaustion. All participants performed their first trial (DHY) without any rehydration. During this session the total weight lost during the trial was determined. The fluid loss that occurred during this session was then used to determine the participant's swear rate (L·hr^−1). To continue in the study, participant's sweat rate was or exceeded 1.3 L·hr^−1. During the next three trails participants were provided 250 ml of fluid every 15 minutes in equal amounts. During one of the trials participants consumed only a flavored sports drink (ELECT only), while during the other trials participants consumed the alanine-glutamine supplement (Sustamine™) mixed in the same flavored sports drink at either a low (LD: 300 mg per 500 ml) or high (HD: 1 g per 500 ml) dose. Measurement of upper body reaction time was performed on the Dynavision D2 Visuomotor Training Device (D2; Dynavision International LLC, West Chester, Ohio). The D2 is a light training reaction device, developed to train sensory motor integration through the visual system. It consists of a board (4 foot×4 foot) that can be raised or lowered relative to the height of the operator. It contains 64 target buttons arranged into five concentric circles surrounding a center screen that can be illuminated to serve as a stimulus for the participant. Participants were required to assume a comfortable athletic stance and stand at a distance from the board where they could easily reach all of the lights. The board height was adjusted so the LCD screen was located just below eye level. A total of three different reaction tests were conducted. Participants were instructed to fixate their gaze on the LCD screen in the middle of the board and to keep their focus there for the entirety of the experiment. The third assessment (MODE B) was similar to the previous measure in that participants were required to react to a visual stimulus as it changed positions on the board. However, the difference between the two assessments was that the stimulus remained for 1 s before it changed to another random location, and each participant was required to verbally recite a five digit number that was presented on the center screen of the D2 during each assessment. The appearance of the digits placed an additional demand on the information processing resources of the participant. The participant was instructed to successfully identify and strike each stimulus before it changed position and score as many strikes as possible within 60 s. The number of successful hits was recorded for each participant. Additionally, to make inferences on true effects of the different trials on reaction performance, an analysis based on the magnitude of differences, calculated from 90% confidence intervals, as previously described by Batterham and Hopkins (2005), was used in this study. Differences in Post-Pre performance (Δresponse) between trials were analyzed via a published spreadsheet (Hopkins 2007), with the smallest non-trivial change set at 20% of the grand standard deviation (Batterham and Hopkins 2005). All data are expressed as a mean effect±SD, with percent chances of a beneficial, trivial or negative outcome. Qualitative inferences, based on quantitative chances were assessed as: <1% almost certainly not, 1-5% very unlikely, 5-25% unlikely, 25-75% possibly, 75-95% likely, 95-99% very likely and >99% almost certainly (Hopkins 2002).

male runners [2] = assay: Serial subtraction test (modified Serial Sevens Test); type: in vivo, human; conditions: between trials
Experimental: The testing protocol is depicted in FIG. 1. Data collection occurred on four separate occasions. Each session required participants to perform a 60-min run at 75% of their previously measured VO2max. Following this run, all participants performed a run at 90% of their VO2max until volitional exhaustion. All participants performed their first trial (DHY) without any rehydration. During this session the total weight lost during the trial was determined. The fluid loss that occurred during this session was then used to determine the participant's swear rate (L·hr^−1). To continue in the study, participant's sweat rate was or exceeded 1.3 L·hr^−1. During the next three trails participants were provided 250 ml of fluid every 15 minutes in equal amounts. During one of the trials participants consumed only a flavored sports drink (ELECT only), while during the other trials participants consumed the alanine-glutamine supplement (Sustamine™) mixed in the same flavored sports drink at either a low (LD: 300 mg per 500 ml) or high (HD: 1 g per 500 ml) dose.
A modified version of the original Serial Sevens Test was utilized to analyze cognitive function. […] The number of correct answers and the average time per correct answer was recorded.

SMILES: C[C@H](N)C(=O)N[C@@H](CCC(N)=O)C(=O)O [L-Alanyl-L-Glutamine] (H-Ala-Gln-OH)
- Mode B Avg Δ, Interpretation (male runners [1]; Dehydration vs High Dose): likely negative
- Mode B Avg Δ, Mean Difference (male runners [1]; Dehydration vs High Dose): −0.023
- Mode B Avg Δ, Percent Negative (male runners [1]; Dehydration vs High Dose): 82.12%
- Mode B Avg Δ, Percent Positive (male runners [1]; Dehydration vs High Dose): 1.37%
- Mode B Avg Δ, Percent Trivial (male runners [1]; Dehydration vs High Dose): 16.50%
- Mode B Hits Δ, Interpretation (male runners [1]; Dehydration vs High Dose): Unclear
- Mode B Hits Δ, Mean Difference (male runners [1]; Dehydration vs High Dose): 0.67
- Mode B Hits Δ, Percent Negative (male runners [1]; Dehydration vs High Dose): 20.22%
- Mode B Hits Δ, Percent Positive (male runners [1]; Dehydration vs High Dose): 31.57%
- Mode B Hits Δ, Percent Trivial (male runners [1]; Dehydration vs High Dose): 48.20%
- Mode B Avg Δ, Interpretation (male runners [1]; Dehydration vs Low Dose): Unclear
- Mode B Avg Δ, Mean Difference (male runners [1]; Dehydration vs Low Dose): −0.0075
- Mode B Avg Δ, Percent Negative (male runners [1]; Dehydration vs Low Dose): 41.89%
- Mode B Avg Δ, Percent Positive (male runners [1]; Dehydration vs Low Dose): 8.13%
- Mode B Avg Δ, Percent Trivial (male runners [1]; Dehydration vs Low Dose): 49.99%
- Mode B Hits Δ, Interpretation (male runners [1]; Dehydration vs Low Dose): Unclear
- Mode B Hits Δ, Mean Difference (male runners [1]; Dehydration vs Low Dose): −1.1
- Mode B Hits Δ, Percent Negative (male runners [1]; Dehydration vs Low Dose): 31.06%
- Mode B Hits Δ, Percent Positive (male runners [1]; Dehydration vs Low Dose): 10.62%
- Mode B Hits Δ, Percent Trivial (male runners [1]; Dehydration vs Low Dose): 58.32%
- Mode B Avg Δ, Interpretation (male runners [1]; Gatorade vs High Dose): No
- Mode B Hits Δ, Interpretation (male runners [1]; Gatorade vs High Dose): Unclear
- Mode B Hits Δ, Mean Difference (male runners [1]; Gatorade vs High Dose): −0.5
- Mode B Hits Δ, Percent Negative (male runners [1]; Gatorade vs High Dose): 33.43%
- Mode B Hits Δ, Percent Positive (male runners [1]; Gatorade vs High Dose): 25.96%
- Mode B Hits Δ, Percent Trivial (male runners [1]; Gatorade vs High Dose): 40.61%
- Mode B Avg Δ (time per hit), group mean (male runners [1]; High Dose (1 g per 500 ml)): 0
- Mode B Hits Δ, group mean (male runners [1]; High Dose (1 g per 500 ml)): 2.75
- Mode B Avg Δ (time per hit), group mean (male runners [1]; Low Dose (300 mg per 500 ml)): −0.0158
- Mode B Hits Δ, group mean (male runners [1]; Low Dose (300 mg per 500 ml)): 4.5
- Mode B Avg Δ, Interpretation (male runners [1]; Low Dose vs Gatorade): possibly negative
- Mode B Avg Δ, Mean Difference (male runners [1]; Low Dose vs Gatorade): −0.016
- Mode B Avg Δ, Percent Negative (male runners [1]; Low Dose vs Gatorade): 70.44%
- Mode B Avg Δ, Percent Positive (male runners [1]; Low Dose vs Gatorade): 1.16%
- Mode B Avg Δ, Percent Trivial (male runners [1]; Low Dose vs Gatorade): 28.39%
- Mode B Hits Δ, Interpretation (male runners [1]; Low Dose vs Gatorade): Unclear
- Mode B Hits Δ, Mean Difference (male runners [1]; Low Dose vs Gatorade): 2.3
- Mode B Hits Δ, Percent Negative (male runners [1]; Low Dose vs Gatorade): 25.04%
- Mode B Hits Δ, Percent Positive (male runners [1]; Low Dose vs Gatorade): 48.77%
- Mode B Hits Δ, Percent Trivial (male runners [1]; Low Dose vs Gatorade): 26.19%
- Mode B Avg Δ, Interpretation (male runners [1]; Low Dose vs High Dose): Unclear
- Mode B Avg Δ, Mean Difference (male runners [1]; Low Dose vs High Dose): −0.016
- Mode B Avg Δ, Percent Negative (male runners [1]; Low Dose vs High Dose): 64.75%
- Mode B Avg Δ, Percent Positive (male runners [1]; Low Dose vs High Dose): 5.03%
- Mode B Avg Δ, Percent Trivial (male runners [1]; Low Dose vs High Dose): 30.22%
- Mode B Hits Δ, Interpretation (male runners [1]; Low Dose vs High Dose): Unclear
- Mode B Hits Δ, Mean Difference (male runners [1]; Low Dose vs High Dose): 1.8
- Mode B Hits Δ, Percent Negative (male runners [1]; Low Dose vs High Dose): 7.59%
- Mode B Hits Δ, Percent Positive (male runners [1]; Low Dose vs High Dose): 40.19%
- Mode B Hits Δ, Percent Trivial (male runners [1]; Low Dose vs High Dose): 52.22%
- successful hits in MODE B and time per successful hits (male runners [1]; between trials): No differences were noted between trials
- serial subtraction tests and time per successful answer (male runners [2]): No significant differences
